Measurements reported in PubChem BioAssay AID1259407 (Chemical Carcinogenesis Research Information System (CCRIS), 2018).
The source made the active and inactive calls. The rule behind the calls is not given here.

Tested on: CCRIS mutagenicity, Ames/micronucleus/aberration tests
Assay: CCRIS mutagenicity studies
[1] = Test System: AMES SALMONELLA TYPHIMURIUM, Strain/Indicator: TA98, Metabolic Activation: NONE, Method: STANDARD PLATE
[2] = Test System: AMES SALMONELLA TYPHIMURIUM, Strain/Indicator: TA98, Metabolic Activation: RAT, LIVER, S-9, AROCLOR 1254, Method: STANDARD PLATE
[3] = Test System: AMES SALMONELLA TYPHIMURIUM, Strain/Indicator: TA100, Metabolic Activation: NONE, Method: STANDARD PLATE
[4] = Test System: AMES SALMONELLA TYPHIMURIUM, Strain/Indicator: TA100, Metabolic Activation: RAT, LIVER, S-9, AROCLOR 1254, Method: STANDARD PLATE
[5] = Test System: AMES SALMONELLA TYPHIMURIUM, Strain/Indicator: TA1535, Metabolic Activation: NONE, Method: STANDARD PLATE
[6] = Test System: AMES SALMONELLA TYPHIMURIUM, Strain/Indicator: TA1535, Metabolic Activation: RAT, LIVER, S-9, AROCLOR 1254, Method: STANDARD PLATE
[7] = Test System: AMES SALMONELLA TYPHIMURIUM, Strain/Indicator: TA1537, Metabolic Activation: NONE, Method: STANDARD PLATE
[8] = Test System: AMES SALMONELLA TYPHIMURIUM, Strain/Indicator: TA1537, Metabolic Activation: RAT, LIVER, S-9, AROCLOR 1254, Method: STANDARD PLATE
[9] = Test System: AMES SALMONELLA TYPHIMURIUM, Strain/Indicator: TA1538, Metabolic Activation: NONE, Method: STANDARD PLATE
[10] = Test System: AMES SALMONELLA TYPHIMURIUM, Strain/Indicator: TA1538, Metabolic Activation: RAT, LIVER, S-9, AROCLOR 1254, Method: STANDARD PLATE
[11] = Test System: AMES SALMONELLA TYPHIMURIUM, Strain/Indicator: TA97, Metabolic Activation: NONE, Method: STANDARD PLATE
[12] = Test System: AMES SALMONELLA TYPHIMURIUM, Strain/Indicator: TA97, Metabolic Activation: RAT, LIVER, S-9, AROCLOR 1254, Method: STANDARD PLATE

Measured: mutagenic call

CCCCC/C=C\C/C=C\CCCCCCCC(=O)O
inactive: Test System: AMES SALMONELLA TYPHIMURIUM, Strain/Indicator: TA98, Metabolic Activation: HAMSTER, LIVER, S-9, AROCLOR 1254 (10%), Method: PREINCUBATION inactive; negative | Test System: AMES SALMONELLA TYPHIMURIUM, Strain/Indicator: TA98, Metabolic Activation: HAMSTER, LIVER, S-9, AROCLOR 1254, Method: STANDARD PLATE inactive; negative | Test System: AMES SALMONELLA TYPHIMURIUM, Strain/Indicator: TA98, Metabolic Activation: NONE, Method: PREINCUBATION inactive; negative | [1] inactive; negative | Test System: AMES SALMONELLA TYPHIMURIUM, Strain/Indicator: TA98, Metabolic Activation: RAT, LIVER, S-9, AROCLOR 1254 (10%), Method: PREINCUBATION inactive; negative | [2] inactive; negative | Test System: AMES SALMONELLA TYPHIMURIUM, Strain/Indicator: TA100, Metabolic Activation: HAMSTER, LIVER, S-9, AROCLOR 1254 (10%), Method: PREINCUBATION inactive; negative | Test System: AMES SALMONELLA TYPHIMURIUM, Strain/Indicator: TA100, Metabolic Activation: HAMSTER, LIVER, S-9, AROCLOR 1254, Method: STANDARD PLATE inactive; negative | Test System: AMES SALMONELLA TYPHIMURIUM, Strain/Indicator: TA100, Metabolic Activation: NONE, Method: PREINCUBATION inactive; negative | [3] inactive; negative | Test System: AMES SALMONELLA TYPHIMURIUM, Strain/Indicator: TA100, Metabolic Activation: RAT, LIVER, S-9, AROCLOR 1254 (10%), Method: PREINCUBATION inactive; negative | [4] inactive; negative | Test System: AMES SALMONELLA TYPHIMURIUM, Strain/Indicator: TA1535, Metabolic Activation: HAMSTER, LIVER, S-9, AROCLOR 1254 (10%), Method: PREINCUBATION inactive; negative | Test System: AMES SALMONELLA TYPHIMURIUM, Strain/Indicator: TA1535, Metabolic Activation: HAMSTER, LIVER, S-9, AROCLOR 1254, Method: STANDARD PLATE inactive; negative | Test System: AMES SALMONELLA TYPHIMURIUM, Strain/Indicator: TA1535, Metabolic Activation: NONE, Method: PREINCUBATION inactive; negative | [5] inactive; negative | Test System: AMES SALMONELLA TYPHIMURIUM, Strain/Indicator: TA1535, Metabolic Activation: RAT, LIVER, S-9, AROCLOR 1254 (10%), Method: PREINCUBATION inactive; negative | [6] inactive; negative | Test System: AMES SALMONELLA TYPHIMURIUM, Strain/Indicator: TA1537, Metabolic Activation: HAMSTER, LIVER, S-9, AROCLOR 1254 (10%), Method: PREINCUBATION inactive; negative | Test System: AMES SALMONELLA TYPHIMURIUM, Strain/Indicator: TA1537, Metabolic Activation: HAMSTER, LIVER, S-9, AROCLOR 1254, Method: STANDARD PLATE inactive; negative | Test System: AMES SALMONELLA TYPHIMURIUM, Strain/Indicator: TA1537, Metabolic Activation: NONE, Method: PREINCUBATION inactive; negative | [7] inactive; negative | Test System: AMES SALMONELLA TYPHIMURIUM, Strain/Indicator: TA1537, Metabolic Activation: RAT, LIVER, S-9, AROCLOR 1254 (10%), Method: PREINCUBATION inactive; negative | [8] inactive; negative | Test System: AMES SALMONELLA TYPHIMURIUM, Strain/Indicator: TA1538, Metabolic Activation: HAMSTER, LIVER, S-9, AROCLOR 1254, Method: STANDARD PLATE inactive; negative | [9] inactive; negative | [10] inactive; negative | Test System: MOUSE LYMPHOMA, Strain/Indicator: L5178Y (TK+/TK-), Metabolic Activation: NONE, Method: SUSPENSION/PLATE inactive; negative. reevaluation of results: negative | Test System: MOUSE LYMPHOMA, Strain/Indicator: L5178Y (TK+/TK-), Metabolic Activation: RAT, LIVER, S-9, AROCLOR 1254, Method: SUSPENSION/PLATE inactive; negative. reevaluation of results: negative

CN(C)c1ccc(C(=C2C=CC(=N)C=C2)c2ccc(N(C)C)cc2)cc1
inactive: [11] inactive; negative | [12] inactive; negative | [1] inactive; negative | [2] inactive; negative | [3] inactive; negative | [4] inactive; negative | Test System: AMES SALMONELLA TYPHIMURIUM, Strain/Indicator: TA104, Metabolic Activation: NONE, Method: STANDARD PLATE inactive; negative | Test System: AMES SALMONELLA TYPHIMURIUM, Strain/Indicator: TA104, Metabolic Activation: RAT, LIVER, S-9, AROCLOR 1254, Method: STANDARD PLATE inactive; negative

Cc1cc(Cl)ccc1OC(C)C(=O)O (stereo unspecified)
inactive: [11] inactive; negative | [12] inactive; negative | [1] inactive; negative | [2] inactive; negative | [3] inactive; negative | [4] inactive; negative | Test System: AMES SALMONELLA TYPHIMURIUM, Strain/Indicator: TA102, Metabolic Activation: NONE, Method: STANDARD PLATE inactive; negative | Test System: AMES SALMONELLA TYPHIMURIUM, Strain/Indicator: TA102, Metabolic Activation: RAT, LIVER, S-9, AROCLOR 1254, Method: STANDARD PLATE inactive; negative

CC(C)c1c(C(=O)Nc2ccccc2)c(-c2ccccc2)c(-c2ccc(F)cc2)n1CC[C@@H](O)C[C@@H](O)CC(=O)O
inactive: [1] inactive; negative | [2] inactive; negative | [3] inactive; negative | [4] inactive; negative | [5] inactive; negative | [6] inactive; negative | [7] inactive; negative | [8] inactive; negative | [9] inactive; negative | [10] inactive; negative | Test System: CHINESE HAMSTER V-79, Strain/Indicator: V-79 (HGPRT)/6-THIOGUANINE, Metabolic Activation: NONE inactive; negative | Test System: CHINESE HAMSTER V-79, Strain/Indicator: V-79 (HGPRT)/6-THIOGUANINE, Metabolic Activation: RAT, LIVER, S-9, AROCLOR 1254 inactive; negative | Test System: E. COLI, Strain/Indicator: WP2 UVRA, Metabolic Activation: NONE, Method: STANDARD PLATE inactive; negative | Test System: E. COLI, Strain/Indicator: WP2 UVRA, Metabolic Activation: RAT, LIVER, S-9, AROCLOR 1254, Method: STANDARD PLATE inactive; negative

CCCCCCCCOC[N+](C)(C)Cc1ccccc1
inactive: Test System: BACILLUS SUBTILIS, Strain/Indicator: H17/REC, Metabolic Activation: NONE, Method: STANDARD PLATE inactive; negative | Test System: BACILLUS SUBTILIS, Strain/Indicator: M45, Metabolic Activation: NONE, Method: STANDARD PLATE inactive; negative
